Laboratory results from patent US8852554B2, “Radiolabelled PDE10 ligands” (Janssen Pharmaceutica NV, priority 2009, dated 2014).
Structures can show the parent of a compound that is named as a salt.

Molecular target: T1, Rat recombinant PDE10A (rPDE10A) (Rattus norvegicus, UniProt Q9QYJ6)
T1 construct: made in house; host or cells: Sf9 insect cells (baculovirus)
T1 sequence (Q9QYJ6 1-794): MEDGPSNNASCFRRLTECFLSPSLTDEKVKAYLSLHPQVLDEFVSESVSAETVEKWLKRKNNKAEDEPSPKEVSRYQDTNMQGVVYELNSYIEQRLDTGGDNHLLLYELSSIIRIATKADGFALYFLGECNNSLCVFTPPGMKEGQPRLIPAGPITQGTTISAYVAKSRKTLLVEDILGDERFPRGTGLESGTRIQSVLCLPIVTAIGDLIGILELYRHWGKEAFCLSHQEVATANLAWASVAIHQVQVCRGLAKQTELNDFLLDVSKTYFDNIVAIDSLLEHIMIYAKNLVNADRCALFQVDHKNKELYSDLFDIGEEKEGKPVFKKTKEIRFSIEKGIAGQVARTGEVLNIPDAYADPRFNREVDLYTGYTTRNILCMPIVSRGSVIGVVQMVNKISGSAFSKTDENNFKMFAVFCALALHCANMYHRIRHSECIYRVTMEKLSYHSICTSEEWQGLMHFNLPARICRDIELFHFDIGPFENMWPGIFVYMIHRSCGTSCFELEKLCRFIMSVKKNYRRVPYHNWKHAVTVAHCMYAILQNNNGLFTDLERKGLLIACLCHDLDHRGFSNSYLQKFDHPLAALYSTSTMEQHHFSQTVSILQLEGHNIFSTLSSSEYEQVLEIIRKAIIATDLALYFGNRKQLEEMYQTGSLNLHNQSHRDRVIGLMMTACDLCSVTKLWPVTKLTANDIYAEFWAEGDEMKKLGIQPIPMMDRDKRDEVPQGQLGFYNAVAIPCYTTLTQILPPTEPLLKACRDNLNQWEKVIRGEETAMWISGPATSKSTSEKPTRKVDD
Assay: rat PDE10A2-cAMP inhibition, in vitro SPA assay
Type: biochemical
Settings: 60 nM cAMP substrate
Experimental: Rat recombinant PDE10A (rPDE10A) was expressed in Sf9 cells using a recombinant rPDE10A baculovirus construct. Cells were harvested after 48 h of infection and the rPDE10A protein was purified by metal chelate chromatography on Ni-sepharose 6FF. Tested compounds were dissolved and diluted in 100% DMSO to a concentration 100 fold of the final concentration in the assay. Compound dilutions (0.4 μl) were added in 384 well plates to 20 μl of incubation buffer (50 mM Tris pH 7.8, 8.3 mM MgCl2, 1.7 mM EGTA). 10 μl of rPDE10A enzyme in incubation buffer was added and the reaction was started by addition of 10 μl substrate to a final concentration of 60 nM cAMP and 0.008 μCi 3H-cAMP. The reaction was incubated for 60 minutes at room temperature. […] After sedimentation of the beads during 30 minutes, the radioactivity was measured in a Perkin Elmer Topcount scintillation counter and results were expressed as cpm. For blanc values the enzyme was omitted from the reaction and replaced by incubation buffer. Control values were obtained by addition of a final concentration of 1% DMSO instead of compound.

Compound	pIC50	IC50
Cc1cccc(COc2ccc(-c3nn(CCF)cc3-c3ccncc3)cc2)n1 [Compound B1, 2-[[4-[1-(2-fluoroethyl)-4-(4-pyridinyl)-1H-pyrazol-3-yl]phenoxy]methyl]-6-methyl-pyridine.dihydrochloride]	8.6	–
Cc1cccc(COc2ccc(-c3nn(CCCF)cc3-c3ccncc3)cc2)n1 [Compound B2, 2-[[4-[1-(3-fluoropropyl)-4-(4-pyridinyl)-1H-pyrazol-3-yl]phenoxy]methyl]-6-methyl-pyridine.hydrochloride]	7.7	–
Cc1cnc(COc2ccc(-c3nn(CCF)cc3-c3ccncc3)cc2)c(C)c1 [Compound B3, 2-[[4-[1-(2-fluoroethyl)-4-(4-pyridinyl)-1H-pyrazol-3-yl]phenoxy]methyl]-3,5-dimethyl-pyridine.succinate]	–	1.62 nM
FCCn1cc(-c2ccncc2)c(-c2ccc(OCc3cccc(Br)n3)cc2)n1 [Compound B6, 2-bromo-6-[[4-[1-(2-fluoroethyl)-4-(4-pyridinyl)-1H-pyrazol-3-yl]phenoxy]methyl]-pyridine.0.75 succinate]	–	9.77 nM
FCCn1cc(-c2ccncc2)c(-c2ccc(OCc3cccc(C(F)(F)F)n3)cc2)n1 [Compound B7, 2-[[4-[1-(2-fluoroethyl)-4-(4-pyridinyl)-1H-pyrazol-3-yl]phenoxy]methyl]-6-(trifluoromethyl)-pyridine]	–	110 nM
FCCn1cc(-c2ccncc2)c(-c2ccc(OCc3cccc(C4CC4)n3)cc2)n1 [Compound B8, 2-Cyclopropyl-6-[[4-[1-(2-fluoroethyl)-4-(4-pyridinyl)-1H-pyrazol-3-yl]phenoxy]methyl]-pyridine.succinate]	–	33.1 nM
FCCOc1cccnc1COc1ccc(-c2nn(CC(F)(F)F)cc2-c2ccncc2)cc1 [Compound B10, 3-(2-fluoroethoxy)-2-[[4-[4-(4-pyridinyl)-1-(2,2,2-trifluoroethyl)-1H-pyrazol-3-yl]phenoxy]methyl]-pyridine.succinate]	–	6.31 nM
FCCOc1ccc(COc2ccc(-c3nn(CC(F)(F)F)cc3-c3ccncc3)cc2)nc1 [Compound B11, 5-(2-fluoroethoxy)-2-[[4-[4-(4-pyridinyl)-1-(2,2,2-trifluoroethyl)-1H-pyrazol-3-yl]phenoxy]methyl]-pyridine]	–	107 nM
FCCCn1cc(-c2ccncc2)c(-c2ccc(OCc3ncccc3OCCF)cc2)n1 [Compound B13, 3-(2-fluoroethoxy)-2-[[4-[1-(3-fluoropropyl)-4-(4-pyridinyl)-1H-pyrazol-3-yl]phenoxy]methyl]pyridine.succinate]	–	13.8 nM
COc1ccc(COc2ccc(-c3nn(CCCF)cc3-c3ccncc3)cc2)nc1 [Compound B14, 2-[[4-[1-(3-fluoropropyl)-4-(4-pyridinyl)-1H-pyrazol-3-yl]phenoxy]methyl]-5-methoxy-pyridine.0.5 succinate]	–	14.5 nM
COc1cccnc1COc1ccc(-c2nn(CCF)cc2-c2ccncc2)cc1 [Compound B16, 2-[[4-[1-(2-fluoroethyl)-4-(4-pyridinyl)-1H-pyrazol-3-yl]phenoxy]methyl]-3-methoxy-pyridine.succinate]	–	3.72 nM
FCCOc1cccnc1COc1ccc(-c2nn(CCF)cc2-c2ccncc2)cc1 [Compound B17, 3-(2-fluoroethoxy)-2-[[4-[1-(2-fluoroethyl)-4-(4-pyridinyl)-1H-pyrazol-3-yl]phenoxy]methyl]pyridine.succinate]	–	3.8 nM
FCCn1cc(-c2ccncc2)c(-c2ccc(OCc3ncccc3F)cc2)n1 [Compound B18, 3-fluoro-2-[[4-[1-(2-fluoroethyl)-4-(4-pyridinyl)-1H-pyrazol-3-yl]phenoxy]methyl]-pyridine.1.2 succinate]	–	16.2 nM
N#Cc1ccc(COc2ccc(-c3nn(CCF)cc3-c3ccncc3)cc2)nc1 [Compound B21, 6-[[4-[1-(2-fluoroethyl)-4-(4-pyridinyl)-1H-pyrazol-3-yl]phenoxy]methyl]-3-pyridinecarbonitrile]	7.1	–
FCCn1cc(-c2ccncc2)c(-c2ccc(OCc3ccc(C4CC4)cn3)cc2)n1 [Compound B23, 5-cyclopropyl-2-[[4-[1-(2-fluoroethyl)-4-(4-pyridinyl)-1H-pyrazol-3-yl]phenoxy]methyl]-pyridine]	–	34.7 nM
COc1cccc(COc2ccc(-c3nn(CCF)cc3-c3ccncc3)cc2)n1 [Compound B24, 2-[[4-[1-(2-fluoroethyl)-4-(4-pyridinyl)-1H-pyrazol-3-yl]phenoxy]methyl]-6-methoxy-pyridine.succinate]	–	2.95 nM
CCOc1cccc(COc2ccc(-c3nn(CCF)cc3-c3ccncc3)cc2)n1 [Compound B25, 2-ethoxy-6-[[4-[1-(2-fluoroethyl)-4-(4-pyridinyl)-1H-pyrazol-3-yl]phenoxy]methyl]-pyridine.succinate]	–	20.9 nM
Cc1cnc(COc2ccc(-c3nn(CCF)cc3-c3ccncc3)cc2)c(C)c1C [Compound B28, 2-[[4-[1-(2-fluoroethyl)-4-(4-pyridinyl)-1H-pyrazol-3-yl]phenoxy]methyl]-3,4,5-trimethyl-pyridine.succinate]	–	4.37 nM

Tested on: not given
Assay: not given
Settings: not given

Compound	melting point
Cc1cccc(COc2ccc(-c3nn(CCF)cc3-c3ccncc3)cc2)n1 (as salt: hydrochloride) [Compound B1, 2-[[4-[1-(2-fluoroethyl)-4-(4-pyridinyl)-1H-pyrazol-3-yl]phenoxy]methyl]-6-methyl-pyridine.dihydrochloride]	227.22 °C
Cc1cccc(COc2ccc(-c3nn(CCCF)cc3-c3ccncc3)cc2)n1 (as salt: hydrochloride) [Compound B2, 2-[[4-[1-(3-fluoropropyl)-4-(4-pyridinyl)-1H-pyrazol-3-yl]phenoxy]methyl]-6-methyl-pyridine.hydrochloride]	106.51 °C
FCCn1cc(-c2ccncc2)c(-c2ccc(OCc3cccc(Br)n3)cc2)n1 (as salt: succinate) [Compound B6, 2-bromo-6-[[4-[1-(2-fluoroethyl)-4-(4-pyridinyl)-1H-pyrazol-3-yl]phenoxy]methyl]-pyridine.0.75 succinate]	108.78 °C
FCCn1cc(-c2ccncc2)c(-c2ccc(OCc3cccc(C4CC4)n3)cc2)n1 (as salt: succinate) [Compound B8, 2-Cyclopropyl-6-[[4-[1-(2-fluoroethyl)-4-(4-pyridinyl)-1H-pyrazol-3-yl]phenoxy]methyl]-pyridine.succinate]	91.25 °C
FCCOc1cccnc1COc1ccc(-c2nn(CC(F)(F)F)cc2-c2ccncc2)cc1 (as salt: succinate) [Compound B10, 3-(2-fluoroethoxy)-2-[[4-[4-(4-pyridinyl)-1-(2,2,2-trifluoroethyl)-1H-pyrazol-3-yl]phenoxy]methyl]-pyridine.succinate]	140.72 °C
FCCCn1cc(-c2ccncc2)c(-c2ccc(OCc3ncccc3OCCF)cc2)n1 (as salt: succinate) [Compound B13, 3-(2-fluoroethoxy)-2-[[4-[1-(3-fluoropropyl)-4-(4-pyridinyl)-1H-pyrazol-3-yl]phenoxy]methyl]pyridine.succinate]	118.38 °C
COc1ccc(COc2ccc(-c3nn(CCCF)cc3-c3ccncc3)cc2)nc1 (as salt: succinate) [Compound B14, 2-[[4-[1-(3-fluoropropyl)-4-(4-pyridinyl)-1H-pyrazol-3-yl]phenoxy]methyl]-5-methoxy-pyridine.0.5 succinate]	126.64 °C
COc1cccnc1COc1ccc(-c2nn(CCF)cc2-c2ccncc2)cc1 (as salt: succinate) [Compound B16, 2-[[4-[1-(2-fluoroethyl)-4-(4-pyridinyl)-1H-pyrazol-3-yl]phenoxy]methyl]-3-methoxy-pyridine.succinate]	178.95 °C
FCCOc1cccnc1COc1ccc(-c2nn(CCF)cc2-c2ccncc2)cc1 (as salt: succinate) [Compound B17, 3-(2-fluoroethoxy)-2-[[4-[1-(2-fluoroethyl)-4-(4-pyridinyl)-1H-pyrazol-3-yl]phenoxy]methyl]pyridine.succinate]	114.18 °C
